From US11293045B2, “Method for electrochemical detection of mycobacteria” (UNIVERSITÉ DE BOURGOGNE, priority 2017, dated 2022)

Assay: Linear voltammetry of substrate and product solutions on screen-printed carbon sensors
Type: physicochemical
Conditions: linear voltammetry v=50 mV·s^−1; 5×10^−4 M in PBS (pH 7.5)—0.2% DMSO; vs. Ag/AgCl
Experimental: FIG. 2 represents the linear voltammograms (v=50 mV·s^−1) of a solution of substrate (p-AP-OG; S) and of product (p-AP-G; dashed curve; P) at 5×10^−4 M in PBS (pH 7.5)—0.2% DMSO.
The electrochemical measurements were carried out by linear voltammetry (v=50 mV·s^−1) with a 910 PSTAT mini potentiostat (Metrohm, France) powered through the USB connection of the computer and controlled by the PSTAT software (version 1.0). To do this, drops of solution of 30-50 μl were deposited on the surface of single-use screen-printed carbon sensors supplied by Dropsens (DRP-110) and connected to the potentiostat via the connector (DRP-DSC). The amperometric detection of the product generated during the reaction catalyzed by Ag85 was always carried out after a step of filtration of the reaction mixture with a filtration device (Microcon 10 kDa, Millipore). All the potentials are measured relative to the Ag/AgCl reference electrode.

| oxidation peak potential | SMILES |
| --- | --- |
| ~+0.4 V | Nc1ccc(O[C@@H]2O[C@H](CO)[C@@H](O)[C@H](O)[C@H]2O)cc1 [p-AP-G, p-aminophenyl-β-D-glucopyranoside] |
| ~+0.2 V | CCCCCCCC(=O)OC[C@H]1O[C@@H](Oc2ccc(N)cc2)[C@H](O)[C@@H](O)[C@@H]1O [p-AP-OG, p-aminophenyl-6-O-octanoyl-β-D-glucopyranoside] |
